PubChem BioAssay (NCI)
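Compound exposure: 48 hours, 5 concentrations, 96-well plates. At the TGI there is no net growth.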

Assays:
Test in all cases: inhibition of tumour cell growth, NCI panel, 48 h
[1] = system: DU-145 prostate
[2] = system: MOLT-4 leukemia
[3] = system: SNB-19 CNS
[4] = system: 786-0 renal
[5] = system: BT-549 breast
[6] = system: SNB-75 CNS
[7] = system: LOX IMVI melanoma
[8] = system: IGROV1 ovarian
[9] = system: UACC-257 melanoma
[10] = system: U251 CNS
[11] = system: CCRF-CEM leukemia
[12] = system: NCI/ADR-RES ovarian
[13] = system: NCI-H522 lung
[14] = system: MDA-N
[15] = system: UO-31 renal
[16] = system: SK-MEL-2 melanoma
[17] = system: MDA-MB-435
[18] = system: OVCAR-5 ovarian
[19] = system: RXF 393 renal
[20] = system: A498 renal
[21] = system: SW-620 colon
[22] = system: HL-60(TB) leukemia
[23] = system: TK-10 renal
[24] = system: UACC-62 melanoma
[25] = system: HT29 colon
[26] = system: HCT-116 colon
[27] = system: OVCAR-8 ovarian
[28] = system: RPMI-8226 leukemia
[29] = system: MALME-3M melanoma
[30] = system: HCT-15 colon
[31] = system: EKVX NSCLC
[32] = system: K-562 leukemia
[33] = system: NCI-H23 lung
[34] = system: HS 578T breast
[35] = system: COLO 205 colon
[36] = system: NCI-H460 lung
[37] = system: MDA-MB-231 breast
[38] = system: KM12 colon
[39] = system: PC-3 prostate
[40] = system: OVCAR-4 ovarian
[41] = system: SK-MEL-5 melanoma
[42] = system: CAKI-1 renal
[43] = system: NCI-H226 lung
[44] = system: HCC-2998 colon
[45] = system: SR leukemia
[46] = system: SN12C renal
[47] = system: SK-MEL-28 melanoma
[48] = system: SK-OV-3 ovarian
[49] = system: OVCAR-3 ovarian
[50] = system: SF-268 CNS
[51] = system: T-47D breast
[52] = system: SF-539 CNS
[53] = system: MCF7 breast
[54] = system: M14 melanoma
[55] = system: A549 NSCLC
[56] = system: DMS 114 small cell lung
[57] = system: M19-MEL melanoma
[58] = system: ACHN renal
[59] = system: DLD-1 colon
[60] = system: KM20L2 colon
[61] = system: LXFL 529 NSCLC
[62] = system: HOP-62 NSCLC

## CSc1n[nH]c(N)c1C(=O)Nc1ccc(Cl)cc1
[1]
  TGI: > 100 µM
[2]
  TGI: > 100 µM
[3]
  TGI: > 100 µM
[4]
  TGI: > 100 µM
[5]
  TGI: > 100 µM
[6]
  TGI: > 100 µM
[7]
  TGI: > 100 µM
[8]
  TGI: > 100 µM
[9]
  TGI: > 100 µM
[10]
  TGI: > 100 µM
[11]
  TGI: > 100 µM
[12]
  TGI: > 100 µM
[13]
  TGI: > 100 µM
[14]
  TGI: > 100 µM
[15]
  TGI: > 100 µM
[16]
  TGI: > 100 µM
[17]
  TGI: > 100 µM
[18]
  TGI: > 100 µM
[19]
  TGI: 60.7 µM
[20]
  TGI: > 100 µM
[21]
  TGI: > 100 µM
[22]
  TGI: > 100 µM
[23]
  TGI: > 100 µM
[24]
  TGI: > 100 µM
[25]
  TGI: > 100 µM
[26]
  TGI: 56 µM
[27]
  TGI: > 100 µM
[28]
  TGI: > 100 µM
[29]
  TGI: > 100 µM
[30]
  TGI: > 100 µM
[31]
  TGI: > 100 µM
[32]
  TGI: > 100 µM
[33]
  TGI: > 100 µM
[34]
  TGI: > 100 µM
[35]
  TGI: > 100 µM
[36]
  TGI: > 100 µM
[37]
  TGI: > 100 µM
[38]
  TGI: > 100 µM
[39]
  TGI: > 100 µM
[40]
  TGI: > 100 µM
[41]
  TGI: > 100 µM
[42]
  TGI: > 100 µM
[43]
  TGI: 76.5 µM
[44]
  TGI: > 100 µM
[45]
  TGI: > 100 µM
[46]
  TGI: > 100 µM
[47]
  TGI: > 100 µM
[48]
  TGI: > 100 µM
[49]
  TGI: > 100 µM
[50]
  TGI: > 100 µM
[51]
  TGI: > 100 µM
[52]
  TGI: > 100 µM
[53]
  TGI: > 100 µM
[54]
  TGI: > 100 µM
[55]
  TGI: > 100 µM

## CCCCCCCCCCCCCCCC[N+](C)(C)Cc1ccc(C[N+](C)(C)CCCCCCCCCCCCCCCC)cc1
[7]
  TGI: 6.07 µM
[56]
  TGI: 5.02 µM
[9]
  TGI: > 100 µM
[10]
  TGI: 3.82 µM
[57]
  TGI: > 100 µM
[13]
  TGI: > 22.4 µM
[15]
  TGI: > 100 µM
[58]
  TGI: > 100 µM
[18]
  TGI: 4.67 µM
[19]
  TGI: 3.27 µM
[20]
  TGI: > 100 µM
[59]
  TGI: > 100 µM
[21]
  TGI: > 100 µM
[23]
  TGI: > 100 µM
[24]
  TGI: > 100 µM
[60]
  TGI: > 100 µM
[28]
  TGI: > 100 µM
[61]
  TGI: > 100 µM
[30]
  TGI: > 100 µM
[31]
  TGI: > 100 µM
[32]
  TGI: 8.52 µM
[35]
  TGI: > 100 µM
[36]
  TGI: 8.71 µM
[62]
  TGI: > 100 µM
[40]
  TGI: > 100 µM
[41]
  TGI: > 100 µM
[42]
  TGI: > 100 µM
[44]
  TGI: > 100 µM
[45]
  TGI: > 100 µM
[47]
  TGI: 7.57 µM
[48]
  TGI: 5.27 µM
[50]
  TGI: > 100 µM
[54]
  TGI: > 100 µM
